pIC50: −log10 of the molar value. Values after ≈ are worked out from the molar mass of the structure shown.
Tests used:
[1] = tested on: Bacillus subtilis; experiment: Growth inhibition of Bacillus subtilis; format: functional
[2] = tested on: Human alphaherpesvirus 2; experiment: Antiviral activity against Herpes simplex virus 2 infected in African green monkey Vero cells assessed as inhibition of virus-induced cytopathogenic effect after 24 hrs by crystal violet staining based assay; format: functional, organism-based; settings: Human alphaherpesvirus 2, Vero

Row | SMILES | MIC [1] [µM] | pIC50 [2]
1 | CO[C@H]1CC(=O)[C@@H]2C[C@@]3(SC)C(=O)N4[C@@H]5[C@@H](O)[C@H]6CC(=O)[C@@H]5C[C@@]4(S6)C(=O)N3[C@@H]2[C@H]1O | 25 (≈ 11.7 µg/mL) | 4.54
2 | CS[C@@]12C[C@H]3C(=O)C=C[C@H](O)[C@H]3N1C(=O)[C@@]13C[C@H]4C(=O)C[C@@H](SS1)[C@H](O)[C@H]4N3C2=O |  | 4.19
3 | CO[C@H]1CC(=O)[C@@H]2C[C@@]3(SC)C(=O)N4[C@@H]5[C@@H](O)[C@H]6CC(=O)[C@@H]5C[C@@]4(SS6)C(=O)N3[C@@H]2[C@H]1O | 13 (≈ 6.51 µg/mL) | 
4 | Nc1nc2c(ncn2COCCO)c(=O)[nH]1 [ACYCLOVIR] |  | 4.51
5 | O=C1C[C@H]2SS[C@@]34C[C@@H]1[C@@H]([C@H]2O)N3C(=O)c1cc2cc(O)ccc2n1C4=O |  | 4.15

Reference: ChEMBL document CHEMBL4602665, “Amphiepicoccins A-J: Epipolythiodioxopiperazines from the Fish-Gill-Derived Fungus Epicoccum nigrum HDN17-88” (J Nat Prod, 2020)
